Test results: the NIST ThermoML archive (doi:10.1016/j.jct.2004.04.004)
Numbers after ± are expanded uncertainties.

Test: xn = mol fraction of the nth substance listed
Conditions: 101.3 kPa, Liquid

Cc1ccccc1C [1,2-dimethylbenzene] + C[S+](C)[O-]
Conditions	mass density [kg/m3]
293.15 K, x1 = 0.0858	1070.35 ± 0.28
293.15 K, x1 = 0.1359	1054.5 ± 0.26
293.15 K, x1 = 0.1957	1036.82 ± 0.24
293.15 K, x1 = 0.2589	1019.38 ± 0.22
293.15 K, x1 = 0.3283	1001.63 ± 0.2
293.15 K, x1 = 0.3947	985.85 ± 0.21
293.15 K, x1 = 0.4732	968.58 ± 0.23
293.15 K, x1 = 0.5482	953.27 ± 0.24
293.15 K, x1 = 0.6132	940.87 ± 0.26
293.15 K, x1 = 0.6648	931.53 ± 0.27
293.15 K, x1 = 0.7329	919.84 ± 0.29
293.15 K, x1 = 0.8012	908.78 ± 0.3
293.15 K, x1 = 0.8732	897.78 ± 0.31
293.15 K, x1 = 0.9198	891.02 ± 0.32
303.15 K, x1 = 0.0923	1059.85 ± 0.27
303.15 K, x1 = 0.153	1040.84 ± 0.25
303.15 K, x1 = 0.229	1018.94 ± 0.22
303.15 K, x1 = 0.3013	999.82 ± 0.2
303.15 K, x1 = 0.3539	986.84 ± 0.21
303.15 K, x1 = 0.439	967.38 ± 0.23
303.15 K, x1 = 0.4938	955.72 ± 0.24
303.15 K, x1 = 0.5539	943.64 ± 0.26
303.15 K, x1 = 0.615	932.03 ± 0.27
303.15 K, x1 = 0.6849	919.56 ± 0.29
303.15 K, x1 = 0.7537	907.99 ± 0.3
303.15 K, x1 = 0.8327	895.54 ± 0.32
303.15 K, x1 = 0.9123	883.82 ± 0.33
313.15 K, x1 = 0.0794	1055.53 ± 0.26
313.15 K, x1 = 0.1246	1040.99 ± 0.25
313.15 K, x1 = 0.1936	1020.26 ± 0.22
313.15 K, x1 = 0.2638	1000.86 ± 0.2
313.15 K, x1 = 0.3248	985.24 ± 0.21
313.15 K, x1 = 0.4058	966.09 ± 0.23
313.15 K, x1 = 0.5732	931.27 ± 0.27
313.15 K, x1 = 0.649	917.29 ± 0.29
313.15 K, x1 = 0.7044	907.66 ± 0.3
313.15 K, x1 = 0.7724	896.49 ± 0.32
313.15 K, x1 = 0.8355	886.69 ± 0.33
313.15 K, x1 = 0.8943	878.03 ± 0.34
313.15 K, x1 = 0.9234	873.9 ± 0.35
323.15 K, x1 = 0.0833	1045.74 ± 0.25
323.15 K, x1 = 0.1489	1024.89 ± 0.23
323.15 K, x1 = 0.1948	1011.29 ± 0.21
323.15 K, x1 = 0.2587	993.57 ± 0.2
323.15 K, x1 = 0.3278	975.84 ± 0.22
323.15 K, x1 = 0.4039	957.84 ± 0.24
323.15 K, x1 = 0.4632	944.82 ± 0.25
323.15 K, x1 = 0.5399	929.1 ± 0.27
323.15 K, x1 = 0.6012	917.37 ± 0.29
323.15 K, x1 = 0.664	906.05 ± 0.3
323.15 K, x1 = 0.7576	890.35 ± 0.32
323.15 K, x1 = 0.8148	881.37 ± 0.34
323.15 K, x1 = 0.8833	871.21 ± 0.35
323.15 K, x1 = 0.9347	863.97 ± 0.36
333.15 K, x1 = 0.0795	1038.47 ± 0.24
333.15 K, x1 = 0.1399	1019.08 ± 0.22
333.15 K, x1 = 0.2048	999.81 ± 0.2
333.15 K, x1 = 0.2598	984.62 ± 0.21
333.15 K, x1 = 0.3189	969.38 ± 0.23
333.15 K, x1 = 0.3832	953.94 ± 0.24
333.15 K, x1 = 0.4539	938.16 ± 0.26
333.15 K, x1 = 0.5138	925.7 ± 0.28
333.15 K, x1 = 0.5822	912.36 ± 0.3
333.15 K, x1 = 0.6427	901.28 ± 0.31
333.15 K, x1 = 0.7038	890.71 ± 0.32
333.15 K, x1 = 0.7638	880.89 ± 0.34
333.15 K, x1 = 0.8247	871.45 ± 0.35
333.15 K, x1 = 0.9138	858.53 ± 0.37
343.15 K, x1 = 0.0698	1033.25 ± 0.24
343.15 K, x1 = 0.1587	1004.79 ± 0.2
343.15 K, x1 = 0.2184	987.38 ± 0.21
343.15 K, x1 = 0.275	972.02 ± 0.22
343.15 K, x1 = 0.3576	951.35 ± 0.25
343.15 K, x1 = 0.4247	935.94 ± 0.27
343.15 K, x1 = 0.4933	921.29 ± 0.28
343.15 K, x1 = 0.5539	909.2 ± 0.3
343.15 K, x1 = 0.6349	894.13 ± 0.32
343.15 K, x1 = 0.7038	882.21 ± 0.34
343.15 K, x1 = 0.7971	867.23 ± 0.36
343.15 K, x1 = 0.8621	857.5 ± 0.37
343.15 K, x1 = 0.9324	847.62 ± 0.38
353.15 K, x1 = 0.0431	1034 ± 0.24
353.15 K, x1 = 0.1383	1002.49 ± 0.2
353.15 K, x1 = 0.2043	982.8 ± 0.21
353.15 K, x1 = 0.2748	963.47 ± 0.23
353.15 K, x1 = 0.3534	943.75 ± 0.26
353.15 K, x1 = 0.4148	929.55 ± 0.27
353.15 K, x1 = 0.4829	914.87 ± 0.29
353.15 K, x1 = 0.5457	902.24 ± 0.31
353.15 K, x1 = 0.6198	888.33 ± 0.33
353.15 K, x1 = 0.6831	877.21 ± 0.34
353.15 K, x1 = 0.7598	864.61 ± 0.36
353.15 K, x1 = 0.8244	854.67 ± 0.38
353.15 K, x1 = 0.8846	845.91 ± 0.39
353.15 K, x1 = 0.9423	837.96 ± 0.4

Cc1cccc(C)c1 [1,3-dimethylbenzene] + C[S+](C)[O-]
Conditions	mass density [kg/m3]
293.15 K, x1 = 0.0679	1074.3 ± 0.33
293.15 K, x1 = 0.1489	1046.5 ± 0.35
293.15 K, x1 = 0.2044	1028.97 ± 0.38
293.15 K, x1 = 0.2613	1012.13 ± 0.41
293.15 K, x1 = 0.3487	988.35 ± 0.47
293.15 K, x1 = 0.3975	976.03 ± 0.51
293.15 K, x1 = 0.4578	961.7 ± 0.56
293.15 K, x1 = 0.5244	946.87 ± 0.61
293.15 K, x1 = 0.5896	933.28 ± 0.66
293.15 K, x1 = 0.6597	919.61 ± 0.71
293.15 K, x1 = 0.7393	905.13 ± 0.77
293.15 K, x1 = 0.8218	891.15 ± 0.82
293.15 K, x1 = 0.8835	881.33 ± 0.87
293.15 K, x1 = 0.9412	872.62 ± 0.9
303.15 K, x1 = 0.0735	1063.89 ± 0.32
303.15 K, x1 = 0.1579	1035.01 ± 0.35
303.15 K, x1 = 0.2387	1010.01 ± 0.39
303.15 K, x1 = 0.3087	990.22 ± 0.44
303.15 K, x1 = 0.3754	972.78 ± 0.49
303.15 K, x1 = 0.4147	963.09 ± 0.52
303.15 K, x1 = 0.4892	945.8 ± 0.58
303.15 K, x1 = 0.5539	931.86 ± 0.63
303.15 K, x1 = 0.6209	918.33 ± 0.68
303.15 K, x1 = 0.6902	905.23 ± 0.73
303.15 K, x1 = 0.7532	894.02 ± 0.77
303.15 K, x1 = 0.8149	883.65 ± 0.82
303.15 K, x1 = 0.8687	875.05 ± 0.85
303.15 K, x1 = 0.9373	864.64 ± 0.9
313.15 K, x1 = 0.0854	1051.04 ± 0.31
313.15 K, x1 = 0.1527	1028.01 ± 0.33
313.15 K, x1 = 0.2357	1002.14 ± 0.38
313.15 K, x1 = 0.2978	984.4 ± 0.43
313.15 K, x1 = 0.3576	968.48 ± 0.48
313.15 K, x1 = 0.4077	955.97 ± 0.52
313.15 K, x1 = 0.4676	941.86 ± 0.56
313.15 K, x1 = 0.5239	929.42 ± 0.61
313.15 K, x1 = 0.5823	917.24 ± 0.65
313.15 K, x1 = 0.6521	903.59 ± 0.7
313.15 K, x1 = 0.7389	887.82 ± 0.76
313.15 K, x1 = 0.7912	878.91 ± 0.8
313.15 K, x1 = 0.8513	869.17 ± 0.84
313.15 K, x1 = 0.9327	856.77 ± 0.89
323.15 K, x1 = 0.0746	1046.35 ± 0.3
323.15 K, x1 = 0.1647	1015.41 ± 0.33
323.15 K, x1 = 0.2138	999.97 ± 0.36
323.15 K, x1 = 0.2847	979.25 ± 0.42
323.15 K, x1 = 0.3579	959.6 ± 0.48
323.15 K, x1 = 0.4135	945.75 ± 0.52
323.15 K, x1 = 0.4724	931.98 ± 0.57
323.15 K, x1 = 0.5249	920.42 ± 0.61
323.15 K, x1 = 0.6038	904.17 ± 0.67
323.15 K, x1 = 0.6739	890.78 ± 0.72
323.15 K, x1 = 0.7598	875.54 ± 0.78
323.15 K, x1 = 0.8133	866.63 ± 0.81
323.15 K, x1 = 0.8732	857.15 ± 0.85
323.15 K, x1 = 0.9239	849.51 ± 0.89
333.15 K, x1 = 0.0673	1040.47 ± 0.29
333.15 K, x1 = 0.1568	1009.3 ± 0.32
333.15 K, x1 = 0.2249	987.86 ± 0.37
333.15 K, x1 = 0.2935	968.02 ± 0.43
333.15 K, x1 = 0.3687	948.04 ± 0.49
333.15 K, x1 = 0.4312	932.71 ± 0.54
333.15 K, x1 = 0.4921	918.76 ± 0.59
333.15 K, x1 = 0.5638	903.47 ± 0.64
333.15 K, x1 = 0.6304	890.23 ± 0.69
333.15 K, x1 = 0.693	878.57 ± 0.73
333.15 K, x1 = 0.7563	867.46 ± 0.77
333.15 K, x1 = 0.8137	857.93 ± 0.81
333.15 K, x1 = 0.8846	846.82 ± 0.86
333.15 K, x1 = 0.9355	839.26 ± 0.89
343.15 K, x1 = 0.0647	1032.84 ± 0.28
343.15 K, x1 = 0.1491	1003.11 ± 0.31
343.15 K, x1 = 0.2139	982.42 ± 0.36
343.15 K, x1 = 0.2749	964.42 ± 0.41
343.15 K, x1 = 0.3588	941.76 ± 0.48
343.15 K, x1 = 0.4395	921.95 ± 0.55
343.15 K, x1 = 0.5023	907.73 ± 0.59
343.15 K, x1 = 0.5539	896.74 ± 0.63
343.15 K, x1 = 0.6135	884.76 ± 0.67
343.15 K, x1 = 0.675	873.12 ± 0.72
343.15 K, x1 = 0.7523	859.44 ± 0.77
343.15 K, x1 = 0.8132	849.34 ± 0.81
343.15 K, x1 = 0.8643	841.29 ± 0.84
343.15 K, x1 = 0.9247	832.25 ± 0.88
353.15 K, x1 = 0.0734	1020.97 ± 0.27
353.15 K, x1 = 0.1359	998.8 ± 0.3
353.15 K, x1 = 0.1844	982.84 ± 0.34
353.15 K, x1 = 0.2258	970 ± 0.38
353.15 K, x1 = 0.2844	952.95 ± 0.43
353.15 K, x1 = 0.3535	934.34 ± 0.48
353.15 K, x1 = 0.4241	916.83 ± 0.54
353.15 K, x1 = 0.4798	903.97 ± 0.58
353.15 K, x1 = 0.5323	892.53 ± 0.62
353.15 K, x1 = 0.6042	877.86 ± 0.67
353.15 K, x1 = 0.6724	864.89 ± 0.72
353.15 K, x1 = 0.7539	850.47 ± 0.77
353.15 K, x1 = 0.8375	836.8 ± 0.83
353.15 K, x1 = 0.9144	825.15 ± 0.88
